Measurements published in US20080293640A1, “Polypeptide inhibitors of HSP27 kinase and uses therefor” (Arizona Board of Regents, A body Corporate, of the State of …, priority 2007, published 2008).

Columns and labels:
[1] = tested on: Rat aortic smooth muscle, A7R5 cells; test: ARS or LPA induced phosphorylation of HSP27 in A7R5 cells (western blot); type: cell-based; details: BIP 1, 5 or 10 μM or SB 20 μM for 2 h prior to ARS 500 μM or LPA 25 μM for 0.5 h; FIG. 8
Experimental: The cells were serum starved with DMEM medium supplemented with 1% BSA and 1% penicillin/streptomycin for 24 h. The phosphorylation of HSP27 was induced using arsenite (ARS, 500 μM) or lysophosphatidic acid (LPA, 25 μM) for 0.5 h. Cells were either untreated or pre-treated with BIP (1, 5 or 10 μM) or SB (20 μM) for 2 h prior to the stimulation with ARS or LPA. Cells were frozen after treatment and analyzed by SDS-PAGE and western blot. The data are shown in FIG. 8; Panels A and B are representative western blots, while Panels C and D provide the data. The bands were quantified by densitometry, and phosphorylated HSP27 or non-phosphorylated HSP27 expressions were related to actin expression to correct for loading differences. The ratio of phosphorylated HSP27/HSP27 (relative p-HSP27/HSP27) in untreated cells was set to 1 for comparison of different blots. Data expressed as mean ±standard deviation of 4 experiments. *: p<0.05 compared to the untreated cells (C).

[2] = tested on: Human saphenous vein rings; test: CTGF expression and phosphorylation of HSP27 in saphenous vein organ culture model (western blot); details: BIP 5 or 10 μM, SB 20 μM; 14 days; related to actin, untreated set to 1; FIG. 7
Experimental: The human saphenous vein rings were cultured in RPMI medium supplemented with L-glutamine (1%), penicillin/streptomycin (1%) and FBS (30%) at 5% CO2 and 37° C. for 14 days. The rings were either untreated (Control, C) or treated with BIP (5 or 10 μM) or SB (20 μM). Rings were frozen after 14 days and protein was extracted and separated by SDS-PAGE and analyzed by western blot using the antibodies as indicated. The data is shown in FIG. 7; Panel A is a representative blot, and Panels B and C show the data summary. The bands were quantified by densitometry, and CTGF, phosphorylated HSP27 or non-phosphorylated HSP27 expressions were related to actin expression to correct for loading differences. The expression of CTGF and HSP27 and phospho-HSP27 in untreated rings was set to 1 for comparison of different blots. Data expressed as mean ±standard deviation of 6 experiments (panel right). *: p<0.05 compared to the untreated rings (C).

[3] = tested on: rat aortic smooth muscle (A7R5) cells; test: LPA induced CTGF expression in A7R5 cells (western blot); type: cell-based; details: BIP 10 or 20 μM or SB 20 μM for 2 h prior to LPA 25 μM, 24 h; FIG. 9
Experimental: The cells were serum starved with DMEM medium supplemented with 1% BSA and 1% penicillin/streptomycin for 24 h. Cells were either untreated (C) or pre-treated with BIP (10 or 20 μM) or SB (20 μM) for 2 h prior the stimulation with lysophosphatidic acid (LPA, 25 μM). After 24 h the cells were lysed, protein extracted and separated by SDS-PAGE and analyzed by western blotting. The data are shown in FIG. 9; Panel A is a representative western blot, while Panel B provides the data. The bands were quantified by densitometry, and CTGF expression was related to actin expression to correct for loading differences. CTGF expression in untreated cells (C) was set to 1 for comparison of different blots. Data expressed as mean ±standard deviation of 3 experiments. *: p<0.05 compared to the cells stimulated with LPA.

[4] = tested on: Human saphenous vein rings; test: Intimal thickening in human saphenous vein rings, 14 day organ culture; details: BIP 5 or 10 μM, SB 20 μM; 14 days; FIG. 6
Experimental: Human saphenous vein rings were cultured in RPMI medium supplemented with L-glutamine (1%), penicillin/streptomycin (1%) and FBS (30%) at 5% CO2 and 37° C. for 14 days. The rings were either untreated (C) or treated with BIP (5 or 10 μM), SB (20 μM) or recombinant HSP27 protein (r-HSP27). * p<0.05 compared to the control (untreated) rings. After 14 days, the rings were fixed in formalin, embedded in paraffin, sectioned at 10 micrometer and stained using Weigert's Resorcin Fuchsin. The slides were analyzed by Zeiss microscope with 40× objective. The intimal thickness was measured using Zeiss and Adobe Photoshop software.

[5] = tested on: human saphenous vein (HSV); test: Sodium nitroprusside induced relaxation of human saphenous vein segments in a muscle bath; details: pretreated 2 hrs with 25 μM SB203580 or 30 μM BIP; contracted with NE 0.5 μM; SNP 0-1 μM; n=3; FIG. 5
Experimental: Segments of human saphenous vein (HSV) were equilibrated in a muscle bath and pretreated with buffer (control), 25 μM SB203580 (SB) or 30 μM BIP for 2 hrs and then contracted with norepinephrine (NE, 0.5 μM) and relaxed with increasing doses of sodium nitroprusside (SNP, 0-1 μM).

[6] = target: MAPKAPKII (Homo sapiens, UniProt P49137); test: In vitro phosphorylation of recombinant HSP27 with […] (immunoblot); type: biochemical; details: MAPKAPKII 50 ng, 30 min at 30° C.; ratio P-P27 to P27, percent phosphorylation vs no inhibitor; FIG. 1
Experimental: Recombinant HSP27 ([…]) was phosphorylated with no enzyme (control, lane 1), […] (50 ng) in the absence (lane 2) or presence of 200 μM ([…]) (SEQ ID NO: 44) obtained from Calbiochem, (lane 3), or BIP (HSP27 kinase inhibitor peptide, […] (SEQ ID NO: 45) (lane 4) or HSP20 phosphopeptide (PTD-P20, lane 4) for 30 min at 30° C. The reaction mixtures were inactivated and separated by SDS-PAGE and transferred to PVDF membrane. The blot was probed with antibodies against HSP27 and phospho-HSP27. The ratio of P-P27 to P27 was calculated and the percent phosphorylation was determined with respect to the phosphorylation obtained in the absence of inhibitor (lane 2). This blot is a representative of 2 separate experiments.

[7] = tested on: human keloid fibroblasts; test: TGF-β1 induced phosphorylation of HSP27 in human keloid fibroblasts (fluorescence microscopy); type: cell-based; details: 60 μM BIP for 2 h followed by TGF-β1 1.25 ng/ml for 24 h
Experimental: Human keloid fibroblasts were maintained in Dulbecco's modified Eagle's medium (DMEM) supplemented with fetal calf serum (10%) and streptomycin/penicillin (1%). They were grown on cover slips and then serum-starved for 48 h. […] Cells were washed, processed for microscopy and labelled with Cy2 for phospho-HSP27 (ser 78/82, green fluorescence), Alexa 586-conjugated phalloidin (red) to reveal the actin cytoskeleton and DAPI (blue) to reveal nucleus, magnification 40×. Pre-treatment of cells with BIP followed by TGFb1 reduced phosphorylation of HSP27 in keloid fibroblasts.

[8] = tested on: human keloid fibroblasts; test: TGF-β1 induced stress fiber formation in human keloid fibroblasts (phalloidin microscopy); type: cell-based; details: 60 μM BIP for 2 h followed by TGF-β1 1.25 ng/ml for 24 h
Experimental: Human keloid fibroblasts were maintained in Dulbecco's modified Eagle's medium (DMEM) supplemented with fetal calf serum (10%) and streptomycin/penicillin (1%). They were grown on cover slips and then serum-starved for 48 h. […] Cells were washed, processed for microscopy and labelled with Alexa 586-conjugated phalloidin to reveal the actin cytoskeleton and DAPI to reveal nucleus, magnification 40×.

[9] = tested on: human keloid fibroblasts; test: TGF-β1 induced expression of CTGF and collagen in human keloid fibroblasts (immunoblot); type: cell-based
From the text: (§1) One important downstream signaling event in the TGFB signaling pathway is the activation of HSP27 kinase. We have designed a cell permeable inhibitor of this kinase (BIP) that effectively blocks its activity. In this study, we employ stable isotopic labeling by amino acids in cell culture (SILAC) as a means to quantitate the protein expression differences manifest during 1) TGF-β1 stimulation, 2) TGF-β1 stimulation in the presence of BIP, or 3) no treatment at all (control) in a keloid fibroblast cell line. Human keloid fibroblasts were grown to 80% confluence, and then serum-starved for 48 h. The cells were subsequently stimulated with nothing (control), with 1.25 ng/ml of transforming growth factor beta 1 (TGFβ) for 24 h, or 10 μM of a BIP for 2 h followed by TGFβ1 for 24 h (TGFβ+BIP). The expression of CTGF and collagen was assessed by immunoblot and normalized to b-actin expression. Phospho-HSP27 was expressed as a ratio to endogenous HSP27. Quantitative results represent average ±standard deviation from 3 independent experiments.
Human keloid fibroblasts were maintained in Dulbecco's modified Eagle's medium (DMEM) supplemented with fetal calf serum (10%) and streptomycin/penicillin (1%). They were grown to 80% confluence, and then serum-starved for 48 h. […] The expression of CTGF and collagen was assessed by immunoblot and normalized to GAPDH (loading control) expression. Results in the graphs (FIG. 3) represent average ±standard deviation from 3 independent experiments.
In a further example, BIP was used at lower concentrations (5 or 10 μM).

[10] = tested on: rat aortic smooth muscle (A7R5) cells; test: Scratch migration of A7R5 cells stimulated with LPA or TGF; type: cell-based; details: BIP 10 μM for 2 h prior to LPA 25 μM or TGF 2.5 ng/mL; FIG. 10
Experimental: A7R5 cells were serum starved with DMEM medium supplemented with 1% BSA and 1% penicillin/streptomycin for 24 h. A scratch made in the dishes using the tip of a pipette, and the cells were rinsed 3 times with PBS. Cells were untreated (C) or pre-treated with BIP (10 μM) for 2 h prior the stimulation with lysophosphatidic acid (LPA, 25 μM) or TGF (2.5 ng/mL). *: p<0.05 compared to the cells stimulated with LPA or TGF.

[11] = tested on: Human Aortic Endothelial Cells; test: Endothelial cell proliferation (CyQuant NF Cell Proliferation Assay); type: cell-based; details: 1, 10 or 50 μM BIP, 16 hours
Experimental: Human Aortic Endothelial Cells (Passage 2) (Cascade Biologics) were seeded into 96-well plates at a concentration of 2000 cells per well as determined using a hemocytometer and allowed to adhere for 4 hours. They were then treated with a final concentration of 1, 10 or 50 μM MK2 inhibitor peptide (BIP), 1, 10, or 50 μM scrambled peptide (SCR), or and equal volume of PBS. Cells were returned to the incubator for 16 hours and counted on a Molecular Devices M5 spectrophotometer after 1 hour treatment with CyQuant NF Cell Proliferation Assay (Invitrogen).

[12] = tested on: human keloid fibroblasts; test: TGF-β1 induced phosphorylation of HSP27 in human keloid fibroblasts (immunoblot); type: cell-based
From the text: as §1
Human keloid fibroblasts were maintained in Dulbecco's modified Eagle's medium (DMEM) supplemented with fetal calf serum (10%) and streptomycin/penicillin (1%). They were grown to 80% confluence, and then serum-starved for 48 h. […] The phosphorylation of HSP27 was assessed by immunoblot analysis using antibodies as indicated. B, The ratio of P-P27 to P27 was calculated and the percent phosphorylation was determined with respect to the phosphorylation obtained with TGF b (lane 2).
In a separate example, lower concentrations of BIP (5 μM and 10 μM) were employed. […] TGF-β1-stimulated cells were treated with BIP (5 or 10 μM) for 24 h, and HSP27 and phospho-HSP27 levels were quantified relative to β-actin expression to correct for loading differences and normalized to untreated levels.

[13] = 10 μM BIP for 2 h followed by TGFβ1 1.25 ng/ml for 24 h
[14] = 60 μM BIP for 2 h followed by TGF-β1 1.25 ng/ml for 24 h, normalized to GAPDH, FIG. 3

Chain of MAPKAPKII (P49137 whole entry): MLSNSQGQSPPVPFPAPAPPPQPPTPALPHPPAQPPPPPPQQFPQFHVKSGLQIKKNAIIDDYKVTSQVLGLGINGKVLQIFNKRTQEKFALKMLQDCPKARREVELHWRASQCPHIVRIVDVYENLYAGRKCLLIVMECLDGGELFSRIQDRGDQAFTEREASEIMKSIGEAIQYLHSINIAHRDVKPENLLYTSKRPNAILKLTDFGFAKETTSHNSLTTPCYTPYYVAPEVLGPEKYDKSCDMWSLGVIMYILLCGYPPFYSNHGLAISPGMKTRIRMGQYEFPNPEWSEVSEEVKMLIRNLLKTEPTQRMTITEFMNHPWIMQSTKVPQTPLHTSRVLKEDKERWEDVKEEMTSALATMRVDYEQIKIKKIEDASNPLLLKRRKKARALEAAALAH

Compound | phosphorylation of HSP27 (relative p-HSP27/HSP27) [1] | CTGF expression in saphenous vein [2] | phosphorylation of HSP27 in saphenous vein [2] | LPA induced CTGF expression [3] | thickening of the intimal layer in saphenous vein [4] | sodium nitroprusside induced relaxation of saphenous vein [5] | MAPKAPKII induced phosphorylation of HSP27 in vitro [6] | TGF-β1 induced phosphorylation of HSP27 (ser 78/82), fluorescence microscopy [7] | central actin [8] | stress fiber formation [8] | TGFβ1 induced expression of CTGF [9, 13] | TGFβ1 induced expression of collagen [9, 13] | TGF-β1 induced expression of CTGF [9, 14] | TGF-β1 induced expression of collagen [9, 14] | migration of cells [10] | EC proliferation [11] | phosphorylation of HSP27 (phospho-HSP27 as ratio to endogenous HSP27) ([12]; 10 μM BIP for 2 h followed by TGFβ1 for 24 h, FIG. 2) | TGF-β1 induced phosphorylation of HSP27, immunoblot ([12]; 10 μM BIP for 24 h, TGF-β1-stimulated cells, relative to β-actin, normalized to untreated) | TGF-β1 induced phosphorylation of HSP27 (ratio P-P27 to P27), immunoblot ([12]; 60 μM BIP for 2 h followed by TGFβ-1 […] for 24 h, n=3, FIG. 4)
C[S+]([O-])c1ccc(-c2nc(-c3ccncc3)c(-c3ccc(F)cc3)[nH]2)cc1 (stereo not shown) [SB, SB 203580, reference compound] | Inhibits | Inhibits | Inhibits | Inhibits | Inhibits | significant increases |  |  |  |  |  |  |  |  |  |  |  |  | 
WLRRIKAWLRRIKALNRQLGVAA [BIP] | inhibits | inhibits | inhibits | inhibits | inhibits | significant increases | inhibits | reduced | loss of central actin | reduced stress fiber formation | inhibits | inhibits | inhibits | inhibits | inhibits | Does Not Inhibit | reduces | inhibits | effectively inhibited
